Test results taken from PubChem BioAssay (NCI).
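Where inhibition never reached the appropriate level, the endpoint shown equals the highest concentration tested. Otherwise, values were interpolated linearly from a five-concentration, 48-hour dose response in 96-well plates. At the GI50, growth is halved. TGI denotes the concentration required for complete inhibition of growth.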

Legend:
Assay in all cases: NCI tumour cell line growth inhibition, 48 h
[1] = tested on: UO-31 renal
[2] = tested on: TK-10 renal
[3] = tested on: HL-60(TB) leukemia
[4] = tested on: HOP-92 NSCLC
[5] = tested on: SK-MEL-28 melanoma
[6] = tested on: MALME-3M melanoma
[7] = tested on: NCI-H23 lung
[8] = tested on: OVCAR-8 ovarian
[9] = tested on: HCT-116 colon
[10] = tested on: EKVX NSCLC
[11] = tested on: M14 melanoma
[12] = tested on: KM12 colon

With `CCCCCCCCCC/C=C/C=O` the TGI [1] was over 100 µM, the TGI [2] was over 100 µM and the TGI [3] was over 100 µM. For the same compound, the TGI [4] was over 100 µM, the TGI [5] was over 100 µM and the TGI [6] was over 100 µM. The TGI [7] was over 100 µM, the TGI [8] was over 100 µM and the TGI [9] was over 100 µM. It also gave a TGI [10] of over 100 µM, a TGI [11] of over 100 µM and a TGI [12] of over 100 µM.
`NCCCn1c2c(c3ccc([N+](=O)[O-])cc3c1=O)C(=O)c1cc(F)ccc1-2` gave a GI50 [1] of 0.0324 µM, a TGI [1] of 0.19 µM and a GI50 [2] of 0.372 µM. The TGI [2] was 2.7 µM, the GI50 [3] was under 0.016 µM and the TGI [3] was 0.166 µM. It also gave a GI50 [4] of 0.0902 µM, a TGI [4] of 0.845 µM and a GI50 [5] of 0.229 µM. It also gave a TGI [5] of 1.54 µM, a GI50 [6] of 0.0275 µM and a TGI [6] of 0.161 µM. It also gave a GI50 [9] of under 0.0112 µM, a TGI [9] of 0.134 µM and a GI50 [11] of 0.0297 µM. For the same compound, the TGI [11] was 0.104 µM.
For `Cc1cc(C)c(NC(=O)/C=C/c2ccccc2)c(C)c1`, the TGI [1] was over 100 µM, the TGI [2] was over 100 µM and the TGI [3] was over 100 µM. The TGI [4] was over 100 µM, the TGI [5] was over 100 µM and the TGI [7] was over 100 µM. The TGI [8] was over 100 µM, the TGI [10] was over 100 µM and the TGI [11] was over 100 µM. The TGI [12] was over 100 µM.
`CN1C(=O)CN2C(Cl)(Cl)C2(c2ccccc2)c2cc(Cl)ccc21` (stereo not given) was tested, and the TGI [1] was over 100 µM, the TGI [2] was over 100 µM and the TGI [4] was 88.2 µM. It also gave a TGI [5] of over 100 µM, a TGI [6] of over 100 µM and a TGI [7] of over 100 µM. For the same compound, the TGI [8] was over 100 µM, the TGI [9] was over 100 µM and the TGI [10] was over 100 µM. It also gave a TGI [11] of over 100 µM and a TGI [12] of over 100 µM.
`O=C1/C(=C/c2ccc(Cl)cc2)N=C(c2ccccc2)N1/N=C/c1ccccc1O` was tested, and the TGI [1] was 43.4 µM, the TGI [2] was 12.6 µM and the TGI [3] was over 100 µM. It also gave a TGI [4] of 32.9 µM, a TGI [5] of 62.9 µM and a TGI [6] of 18.7 µM. It also gave a TGI [7] of over 100 µM, a TGI [8] of 34.6 µM and a TGI [9] of 15.2 µM. For the same compound, the TGI [10] was 21.3 µM, the TGI [11] was 19.1 µM and the TGI [12] was 33.3 µM.
`NC(Cc1ccccc1)c1nn[nH]n1` (stereo not given) was tested, and the TGI [1] was over 100 µM, the TGI [2] was over 100 µM and the TGI [3] was over 100 µM. It also gave a TGI [4] of over 100 µM, a TGI [5] of over 100 µM and a TGI [6] of over 100 µM. The TGI [7] was over 100 µM, the TGI [8] was over 100 µM and the TGI [9] was over 100 µM. For the same compound, the TGI [10] was over 100 µM, the TGI [11] was over 100 µM and the TGI [12] was over 100 µM.
With `C#C[C@]1(O)[C@@H](CO)O[C@@H](n2ccc(N)nc2=O)[C@@H]1O` the TGI [1] was 0.395 µM, the TGI [2] was 2.65 µM and the TGI [3] was over 100 µM. For the same compound, the TGI [4] was 12.7 µM, the TGI [5] was 4.27 µM and the TGI [6] was 0.925 µM. The TGI [7] was 1.78 µM, the TGI [8] was over 100 µM and the TGI [9] was over 33.9 µM. It also gave a TGI [10] of over 19.9 µM, a TGI [11] of 3.06 µM and a TGI [12] of 4.4 µM.
